Results on three compounds are retold here after ChEMBL document CHEMBL1201862, “PubChem BioAssay data set” (2004).

Structures are written as SMILES.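 1) Cells in 96-well plates. 2) Compound, 48 h, 5 concentrations. 3) Linear interpolation between surrounding doses. 4) Unreached endpoint = highest concentration. GI50 = concentration required for 50% inhibition of growth.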 Active and inactive are the calls of the source. Cut-off read from the data, not from the text of the source: active = GI50 up to about 1.1 µM and inactive = higher.

Test systems include MDA-N; SF-295; T47D; MCF7; SK-OV-3; U-251; RPMI-8226; CAKI-1; UACC-62; RXF 393; SW-620; LOX IMVI; PC-3; IGROV-1; HCC 2998; DU-145; MDA-MB-231; MOLT-4; SK-MEL-28; UACC-257.
Common to all, as to test: NCI-60 cell line screen, 48 h

For the compound `O=C(O)CC(C(=O)O)C1c2ccccc2-c2ccccc21` (stereo not given), the GI50 is > 100 µM (inactive) with MDA-N; 45.1 µM (inactive) with SF-295; 20.2 µM (inactive) with T47D; 34.2 µM (inactive) in the experiment with MCF7; 66.8 µM (inactive) in the experiment with SK-OV-3; 39.3 µM (inactive) in the experiment with U-251. In addition, the GI50 in the experiment with RPMI-8226 was 41.1 µM (inactive); in the experiment on CAKI-1, 66.1 µM (inactive); in the experiment with UACC-62 it was > 100 µM (inactive); with RXF 393, > 100 µM (inactive); with SW-620, > 100 µM (inactive); in the experiment with LOX IMVI it was 38.5 µM (inactive). Moreover, the GI50 with PC-3 is > 100 µM (inactive); in the experiment with IGROV-1, 70 µM (inactive); in the experiment with HCC 2998, > 100 µM (inactive); in the experiment on DU-145, 17.9 µM (inactive); with MDA-MB-231, > 100 µM (inactive); with MOLT-4, 48.2 µM (inactive). Besides, the GI50 in the experiment on SK-MEL-28 and with UACC-257 was > 100 µM (inactive) each time.
In the case of `COc1ccc(Cc2cc(OC)c(OC)c(OC)c2)cc1`, the GI50 is 0.0245 µM (active) in the experiment with MDA-N; 0.188 µM (active) with SF-295; 30.8 µM (inactive) with T47D; 0.203 µM (active) in the experiment with MCF7; 0.308 µM (active) with SK-OV-3; 0.261 µM (active) in the experiment on U-251. The GI50 with RPMI-8226 was 0.298 µM (active); in the experiment with CAKI-1, 0.254 µM (active); in the experiment on UACC-62 it was 0.129 µM (active); in the experiment on RXF 393 it was 0.168 µM (active); in the experiment with SW-620, 0.109 µM (active); in the experiment on LOX IMVI, 0.393 µM (active). Besides, the GI50 in the experiment with PC-3 is 0.234 µM (active); in the experiment on IGROV-1, 0.863 µM (active); in the experiment with HCC 2998, 0.226 µM (active); with DU-145, 0.328 µM (active); in the experiment with MDA-MB-231 it was 0.711 µM (active); with MOLT-4 it was 0.221 µM (active). The values for the GI50 in the experiment with SK-MEL-28 and in the experiment on UACC-257 were 0.479 µM (active) and 0.509 µM (active), respectively.
Turning to `COc1ccc2c(C)cc(C)nc2n1`, the GI50 in the experiment on MDA-N, in the experiment on SF-295, with T47D, in the experiment with MCF7, in the experiment with SK-OV-3 and in the experiment on U-251 was > 100 µM (inactive) throughout. The GI50 in the experiment on RPMI-8226, in the experiment on CAKI-1, in the experiment with UACC-62, in the experiment on RXF 393, in the experiment with SW-620 and in the experiment with LOX IMVI was > 100 µM (inactive) each time. In addition, the GI50 in the experiment with PC-3, in the experiment with IGROV-1, in the experiment on HCC 2998, in the experiment on DU-145, in the experiment with MDA-MB-231 and in the experiment with MOLT-4 was > 100 µM (inactive) throughout. Besides, the GI50 with SK-MEL-28 and with UACC-257 was > 100 µM (inactive) each time.
